These results are taken from ChEMBL document CHEMBL1157988, “Loloatins A-D, cyclic decapeptide antibiotics produced in culture by a tropical marine bacterium” (1999).

Common to all, as to assay type: functional
The subject of test [1] is Staphylococcus aureus. Nature of the test: Antimicrobial activity against Staphylococcus aureus.
In test [2] the test system is Staphylococcus aureus. Nature of the test: Antimicrobial activity against methicillin-resistant Staphylococcus aureus.
For test [3], the system named is Enterococcus faecalis. Nature of the test: Antimicrobial activity against Enterococcus faecalis.
The test system of test [4] is Enterococcus faecalis. Nature of the test: Antimicrobial activity against vancomycin-resistant Enterococcus faecalis.
The test system of test [5] is Enterococcus faecium. Nature of the test: Antimicrobial activity against Enterococcus faecium.
Test [6] relates to Enterococcus faecium. Nature of the test: Antimicrobial activity against vancomycin-resistant Enterococcus faecium.
Test [7] deals with Streptococcus pneumoniae. Nature of the test: Antimicrobial activity against Streptococcus pneumoniae.
The test system of test [8] is Streptococcus pneumoniae. Nature of the test: Antimicrobial activity against penicillin-resistant Streptococcus pneumoniae.
A further test has as its system Escherichia coli. Nature of the test: Antimicrobial activity against Escherichia coli.
The test system of a further test is Pseudomonas aeruginosa. Kind of test: Antimicrobial activity against Pseudomonas aeruginosa.
A further test deals with Burkholderia cepacia. Kind of test: Antimicrobial activity against Pseudomonas cepacia.
The subject of test [9] is Stenotrophomonas maltophilia. Kind of test: Antimicrobial activity against Xanthomonas maltophilia.
In a further test the test system is Candida albicans. Nature of the test: Antimicrobial activity against Candida albicans.

SMILES strings stand for the structures. In brackets after ≈: the same amount, converted by molar mass. Square brackets hold non-standard residues; d marks the D form. Peptide text beside a SMILES is read from it. Orn = NCCC[C@H](N)C(=O)O Where only a bound is given, the exact number is not on record here.

As usually defined, the MIC is the lowest concentration that inhibits growth of the organism. Lower therefore signals a more susceptible organism. For `CC(C)C[C@@H]1NC(=O)[C@H](CCCN)NC(=O)[C@H](C(C)C)NC(=O)[C@H](Cc2ccc(O)cc2)NC(=O)[C@H](CC(=O)O)NC(=O)[C@H](CC(N)=O)NC(=O)[C@@H](Cc2ccccc2)NC(=O)[C@H](Cc2ccccc2)NC(=O)[C@@H]2CCCN2C(=O)[C@@H](Cc2ccc(O)cc2)NC1=O` [LOLOATIN A], the MIC against Staphylococcus aureus [1], in the test with Staphylococcus aureus [2], in the test with Enterococcus faecalis [3], with Enterococcus faecalis [4], in the test with Enterococcus faecium [5] and in the test with Enterococcus faecium [6] was 4 µg/mL (≈ 3.14 µM) in each case. The MIC in the test on Streptococcus pneumoniae [7] is 1 µg/mL (≈ 0.785 µM); with Streptococcus pneumoniae [8], 2 µg/mL (≈ 1.57 µM); against Escherichia coli it was more than 32 µg/mL; with Pseudomonas aeruginosa, more than 32 µg/mL; against Burkholderia cepacia, more than 32 µg/mL; in test [9], more than 32 µg/mL. This compound yielded an MIC in the test on Candida albicans of 8 µg/mL (≈ 6.28 µM).

In the case of `CC(C)C[C@@H]1NC(=O)[C@H](CCCN)NC(=O)[C@H](C(C)C)NC(=O)[C@H](Cc2c[nH]c3ccccc23)NC(=O)[C@H](CC(=O)O)NC(=O)[C@H](CC(N)=O)NC(=O)[C@@H](Cc2ccccc2)NC(=O)[C@H](Cc2ccccc2)NC(=O)[C@@H]2CCCN2C(=O)[C@@H](Cc2ccc(O)cc2)NC1=O` [LOLOATIN B], the MIC with Staphylococcus aureus [1], in the test on Staphylococcus aureus [2], against Enterococcus faecalis [3], against Enterococcus faecalis [4], in the test with Enterococcus faecium [5] and with Enterococcus faecium [6] was 2 µg/mL (≈ 1.54 µM) each time. Also, the minimum inhibitory concentration (MIC) in the test on Streptococcus pneumoniae [7] is 1 µg/mL (≈ 0.771 µM); in the test with Streptococcus pneumoniae [8] it was 1 µg/mL (≈ 0.771 µM); in the test on Escherichia coli, more than 32 µg/mL; in the test on Pseudomonas aeruginosa, more than 32 µg/mL; in the test with Burkholderia cepacia it was more than 32 µg/mL; in [9], more than 32 µg/mL. In the test on Candida albicans, this compound yielded an MIC of 8 µg/mL (≈ 6.17 µM).

For the compound `CC(C)C[C@@H]1NC(=O)[C@H](CCCN)NC(=O)[C@H](C(C)C)NC(=O)[C@H](Cc2c[nH]c3ccccc23)NC(=O)[C@H](CC(=O)O)NC(=O)[C@H](CC(N)=O)NC(=O)[C@@H](Cc2ccccc2)NC(=O)[C@H](Cc2c[nH]c3ccccc23)NC(=O)[C@@H]2CCCN2C(=O)[C@@H](Cc2ccc(O)cc2)NC1=O` [LOLOATIN C] (cyclo(DWV[Orn]L[dY]PW[dF]N)), the MIC in the test with Staphylococcus aureus [1] was found to be 0.5 µg/mL (≈ 0.374 µM); with Staphylococcus aureus [2], 0.5 µg/mL (≈ 0.374 µM); against Enterococcus faecalis [3], 1 µg/mL (≈ 0.749 µM); against Enterococcus faecalis [4] it was 1 µg/mL (≈ 0.749 µM); against Enterococcus faecium [5], 2 µg/mL (≈ 1.5 µM); against Enterococcus faecium [6] it was 2 µg/mL (≈ 1.5 µM). Moreover, the MIC is less than 0.25 µg/mL in the test with Streptococcus pneumoniae [7]; 1 µg/mL (≈ 0.749 µM) against Escherichia coli; more than 32 µg/mL against Pseudomonas aeruginosa; more than 32 µg/mL in the test on Burkholderia cepacia; more than 32 µg/mL in test [9]; 8 µg/mL (≈ 5.99 µM) against Candida albicans.

For `CC(C)C[C@@H]1NC(=O)[C@H](CCCN)NC(=O)[C@H](C(C)C)NC(=O)[C@H](Cc2c[nH]c3ccccc23)NC(=O)[C@H](CC(=O)O)NC(=O)[C@H](CC(N)=O)NC(=O)[C@@H](Cc2ccccc2)NC(=O)[C@H](Cc2ccccc2)NC(=O)[C@@H]2C[C@@H](O)CN2C(=O)[C@@H](Cc2ccc(O)cc2)NC1=O` [LOLOATIN D], the MIC against Staphylococcus aureus [1], with Staphylococcus aureus [2], in the test on Enterococcus faecalis [3], in the test with Enterococcus faecalis [4], in the test on Enterococcus faecium [5] and against Enterococcus faecium [6] was 8 µg/mL (≈ 6.1 µM) in each case. In addition, the MIC is 4 µg/mL (≈ 3.05 µM) with Streptococcus pneumoniae [7]; 4 µg/mL (≈ 3.05 µM) against Streptococcus pneumoniae [8]; more than 32 µg/mL with Escherichia coli; more than 32 µg/mL in the test on Pseudomonas aeruginosa; more than 32 µg/mL against Burkholderia cepacia; more than 32 µg/mL in [9]. The MIC with Candida albicans came out at 16 µg/mL (≈ 12.2 µM).
